These results are taken from patent publication US10294219B2 (priority 2015, dated 2019).

The conditions of series [1]: data from US20130324496A1, cited from earlier work.
Series [2] in a line: Light stability assessment (LS-3000 light test chamber, HPLC purity after illumination). The format is physicochemical. To be noted: 1.2 million lux·hours of illumination, 4400 lux for 12 days, layer no more than 1 mm. The source says: Samples of different crystal forms were placed in a watch glass and spread to a thin layer with thickness of no more than 1 mm, placed in a LS-3000 light test chamber with a light intensity of 4400 lux for 12 days.
(2) The purity of the sample after illumination was checked by HPLC and compared with the initial purity.

Series [3] in a line: Changes of crystal form at different temperatures. The format is physicochemical.
Series [4] in a line: Solvent-based screening of crystal form changes. The format is physicochemical.
[5] abbreviates: 100 mg suspended in 200 μL Ethyl acetate.
[6] abbreviates: 100 mg suspended in 200 μL MTBE.

Where two headings read alike, the source gives them in different places.

On to `COC(=O)N[C@H](C(=O)N1CC2(CC2)C[C@H]1c1ncc(-c2ccc3c(c2)C(F)(F)c2cc(-c4ccc5nc([C@@H]6[C@H]7CC[C@H](C7)N6C(=O)[C@@H](NC(=O)OC)C(C)C)[nH]c5c4)ccc2-3)[nH]1)C(C)C` [Ledipasvir amorphous, Ledipasvir], for which, in series [1] (1.2 million lux·hours), the “HPLC purity decreased, %” value is recorded as 8.3%.
On to `COC(=O)N[C@H](C(=O)N1CC2(CC2)C[C@H]1c1ncc(-c2ccc3c(c2)C(F)(F)c2cc(-c4ccc5nc([C@@H]6[C@H]7CC[C@H](C7)N6C(=O)[C@@H](NC(=O)OC)C(C)C)[nH]c5c4)ccc2-3)[nH]1)C(C)C` [Ledipasvir diacetone solvate], for which, in series [1] (1.2 million lux·hours), the “HPLC purity decreased, %” value is listed as 6.3%.
On to `COC(=O)N[C@H](C(=O)N1CC2(CC2)C[C@H]1c1ncc(-c2ccc3c(c2)C(F)(F)c2cc(-c4ccc5nc([C@@H]6[C@H]7CC[C@H](C7)N6C(=O)[C@@H](NC(=O)OC)C(C)C)[nH]c5c4)ccc2-3)[nH]1)C(C)C` [crystal form A of Ledipasvir, LDV-acetonitrile-MTBE ternary solvate], for which the “HPLC purity decreased, %” value in series [2], in series [2] (listed as LDV-acetonitrile-MTBE ternary solvate) and in series [2] (listed as Ledipasvir crystal form A) was 2.0% throughout. The “Crystal Form” value in series [3] (120° C., nitrogen protection) is “crystal form C”; in series [3] (120° C., nitrogen protection, listed as crystal form A), “crystal form C”; in series [3] (180° C., nitrogen protection), “amorphous form”; in series [3] (Room temperature), “crystal form A”. The entries for the “Solvent-based screening result (change of crystal form)” value in series [4] (100 mg suspended in 200 μL ACN), in series [4] (setting [5]) and in series [4] (setting [6]) were “crystal form D”, “solution” and “amorphous form”, respectively.
`COC(=O)N[C@H](C(=O)N1CC2(CC2)C[C@H]1c1ncc(-c2ccc3c(c2)C(F)(F)c2cc(-c4ccc5nc([C@@H]6[C@H]7CC[C@H](C7)N6C(=O)[C@@H](NC(=O)OC)C(C)C)[nH]c5c4)ccc2-3)[nH]1)C(C)C` [crystal form B of Ledipasvir, LDV-acetone-MTBE ternary solvate]: the “HPLC purity decreased, %” value in series [2], in series [2] (listed as LDV-acetone-MTBE ternary solvate) and in series [2] (listed as Ledipasvir crystal form B) was 0.6% throughout. The “Crystal Form” value in series [3] (120° C., nitrogen protection) is reported as “crystal form E”; in series [3] (120° C., nitrogen protection, listed as crystal form B), “crystal form E”; in series [3] (180° C., nitrogen protection), “amorphous form”; in series [3] (Room temperature), “crystal form B”. In addition, the results for the “Solvent-based screening result (change of crystal form)” value in series [4] (100 mg suspended in 200 μL ACN), in series [4] (setting [5]) and in series [4] (setting [6]) were “crystal form D”, “solution” and “amorphous form”, respectively.
Turning to `COC(=O)N[C@H](C(=O)N1CC2(CC2)C[C@H]1c1ncc(-c2ccc3c(c2)C(F)(F)c2cc(-c4ccc5nc([C@@H]6[C@H]7CC[C@H](C7)N6C(=O)[C@@H](NC(=O)OC)C(C)C)[nH]c5c4)ccc2-3)[nH]1)C(C)C` [crystal form I of Ledipasvir], the “HPLC purity decreased, %” value in series [1] (900,000 lux·hours) was 6.6%.
Consider `COC(=O)N[C@H](C(=O)N1CC2(CC2)C[C@H]1c1ncc(-c2ccc3c(c2)C(F)(F)c2cc(-c4ccc5nc([C@@H]6[C@H]7CC[C@H](C7)N6C(=O)[C@@H](NC(=O)OC)C(C)C)[nH]c5c4)ccc2-3)[nH]1)C(C)C` [crystal form II of Ledipasvir], for which the “HPLC purity decreased, %” value in series [1] (1.2 million lux·hours) is given as 6.3%.
`COC(=O)N[C@H](C(=O)N1CC2(CC2)C[C@H]1c1ncc(-c2ccc3c(c2)C(F)(F)c2cc(-c4ccc5nc([C@@H]6[C@H]7CC[C@H](C7)N6C(=O)[C@@H](NC(=O)OC)C(C)C)[nH]c5c4)ccc2-3)[nH]1)C(C)C` [monoacetone solvate]: the “HPLC purity decreased, %” value in series [1] (1.2 million lux·hours) is reported as 6.3%.
